Entries after “also recorded” stand apart in the source; their conditions may differ.
Key:
Hsp70 = test system: Hsp70; design: method as in PMID 8226982; conditions: optimal range of concentration between 100 and 150 mM; cited from earlier work
BiP NBD [1] = molecular target: T1, BiP NBD (Homo sapiens, UniProt P11021); assay: Equilibrium 2D methyl-TROSY NMR fingerprint spectra with ligands (ATP analogs, calcium); type: binding; design: His6 (N, cleaved yes); made in house; host or cells: E. coli BL21-(DE3)-Lemo, pET28a vector; conditions: 2D methyl-TROSY compared with in-cyclo states
T1 sequence (P11021 19-406): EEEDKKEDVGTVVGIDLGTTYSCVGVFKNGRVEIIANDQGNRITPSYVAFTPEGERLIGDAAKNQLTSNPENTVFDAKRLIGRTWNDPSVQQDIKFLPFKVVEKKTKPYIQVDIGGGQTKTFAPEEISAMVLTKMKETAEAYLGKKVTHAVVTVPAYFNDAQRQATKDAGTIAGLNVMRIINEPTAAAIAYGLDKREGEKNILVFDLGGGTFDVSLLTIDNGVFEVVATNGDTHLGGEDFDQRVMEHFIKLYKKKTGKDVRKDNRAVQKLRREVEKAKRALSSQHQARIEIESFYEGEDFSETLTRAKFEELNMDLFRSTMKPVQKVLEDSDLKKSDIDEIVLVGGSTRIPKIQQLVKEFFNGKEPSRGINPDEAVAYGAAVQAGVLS
Procedure: First, we probed calcium binding to ADP-bound NBD by NMR equilibrium experiments. […] (Supplementary Fig. 15d). […] (Supplementary Fig. 16).
AMPPNP (adenylyl imidodiphosphate; Jena-bioscience), AMPPCP (adenylyl methylenediphosphate; Jena-bioscience) and ATP-γ-S (adenosine 5’-(gamma-thiotriphosphate; Jena-bioscience) were dissolved in the HKM reaction buffer (25 mM HEPES, pH 7.5, 150 mM KCl and 10 mM MgCl2) at a concentration of 50 mM directly before to be mixed with the BiP NBD sample. Samples were prepared fresh before each use to minimize the known instability of these analogs that undergo slow hydrolysis in solution.
Supplementary Figure 7. Analysis of the BiP NBD ATP-bound state. a, Combined methyl chemical shift differences between the APD·Pi-bound and the ATP-bound state of BiP NBD in-cyclo. The magnitude of 1 and 1.5 SDs are indicated by an orange and a red line, respectively. b, Overlay of 9 crystal structures of BiP NBD in presence of different nucleotides (colored sticks). c, Backbone root means square deviation (RMSD - Å) between the structures shown in (b) and the NBD apo state (PDB 3LDN). d, 2D [13C,1H]-TROSY spectrum of methyl-labeled BiP NBD in equilibrium with the ATP analogs AMPPNP (green), AMPPCP (orange) or ATP-γ-S (yellow), overlayed with the spectrum in-cyclo (pink).
State- and sequence-specific resonance assignments are indicated for the ADP-bound (light blue), ADP·Pi-bound (dark blue) and the ATP-bound (red) states in-cyclo.
(§1) (1 picture or pasted object on this page, not shown here)
Supplementary Figure 15. Mapping of calcium binding to BiP NBD. a, Selected details from published structures of BiP. From left to right: yeast BiP(NBD)-Mg2+-ADP (PDB 3QFU), human BiP(NBD)-Mg2+- ADP·Pi (PDB 5EVZ), human BiP(NBD)-Ca2+-ADP (PDB 6ZYH). b, Selected sections of 2D [13C,1H]-methyl-TROSY spectra of residue val50cg1 or Ile52cd1 for the equilibrium experiments of NBD apo (grey), NBD with 5 mM Pi (green), NBD with 1 mM ADP (light blue), NBD with 1 mM ADP·Pi (dark blue), NBD with 1 mM ADP-Ca2+ (dark-pink).and NBD with 3.3 mM calcium ([Mg2+]/[Ca2+]=3) (light-pink). c, Combined methyl chemical shift differences between the BiP NBD APD and the ADP-Ca2+-bound state. The magnitude of 1 and 1.5 SDs are indicated by a light blue and a dark blue line. d, Structure of NBD in […]
the ADP-Ca-bound state (PDB 6ZYH).

BiP NBD [2] = molecular target: T1, BiP NBD; assay: NMR experiment with MABA-ATP (no E1, no E2) and kinetic fit of the MABA-ATP/MABA-ADP functional cycle; type: biochemical; design: His6 (N, cleaved yes); made in house; host or cells: E. coli BL21-(DE3)-Lemo, pET28a vector; conditions: for species: Supplementary Fig 13b
Procedure: […] After the equilibration time 2D [^13C,^1H]-HMQC spectra were recorded in interleaved mode with 1D ^1H NMR spectra. […] The same setup was used for the alternative experiments by including or excluding E1 and/or E2. When E1 was not included, the ratio of the ATP/ADP NMR signals was used to monitor their relative concentrations.
as §1

BiP = conditions: NBD·MABA-ATP ⇌ NBD + MABA-ATP; cited from earlier work
[3] = MABA-ATP instead of ATP, reactions 1MABA, 2MABA, 3

In the case of [K+] [potassium], the “increase of the Hsp70 ATP hydrolysis activity” value (Hsp70) is given as 5 fold.
With Nc1ncnc2c1ncn2[C@@H]1O[C@H](COP(=O)(O)OP(=O)(O)CP(=O)(O)O)[C@@H](O)[C@H]1O [AMPPCP, adenylyl methylenediphosphate] the “NMR fingerprint of BiP NBD with the ligand” value (shortened to “NMR fingerprint of BiP NBD”) (BiP NBD [1]) was “resemble the ADP·Pi-bound state rather than the ATP-bound state”.
For Nc1ncnc2c1ncn2[C@@H]1O[C@H](COP(=O)(O)OP(=O)(O)NP(=O)(O)O)[C@@H](O)[C@H]1O [AMPPNP, adenylyl imidodiphosphate], the “NMR fingerprint of BiP NBD” value (BiP NBD [1]) was “resemble the ADP·Pi-bound state rather than the ATP-bound state”.
Work on CNc1ccccc1C(=O)NCCCCNc1nc2c(N)ncnc2n1[C@@H]1O[C@H](COP(=O)(O)OP(=O)(O)O)[C@@H](O)[C@H]1O [MABAADP] yielded a species (BiP NBD [2]; time 4 min) of 350 µM, a species (BiP NBD [2]; time 10 min) of 508 µM and a species (BiP NBD [2]; time 16 min) of 626 µM. It also gave a species (BiP NBD [2]; time 22 min) of 712 µM, a species (BiP NBD [2]; time 28 min) of 800 µM and a species (BiP NBD [2]; time 34 min) of 840 µM. It also gave a species (BiP NBD [2]; time 40 min) of 889 µM, a species (BiP NBD [2]; time 46 min) of 907 µM and a species (BiP NBD [2]; time 52 min) of 929 µM. It also gave a species (BiP NBD [2]; time 58 min) of 924 µM and a species (BiP NBD [2]; time 64 min) of 932 µM.
With Nc1ncnc2c1ncn2[C@@H]1O[C@H](CO[P@](=O)(O)O[P@](=O)(O)O[P@@](=O)(O)S)[C@@H](O)[C@H]1O [ATP-γ-S, adenosine 5’-(gamma-thiotriphosphate)] the “NMR fingerprint of BiP NBD” value (BiP NBD [1]) was “resemble the ADP·Pi-bound state rather than the ATP-bound state; also recorded: showed a peak splitting, indicating the formation of a heterogenous mix of conformations”.
With CNc1ccccc1C(=O)NCCCCNc1nc2c(N)ncnc2n1[C@@H]1O[C@H](COP(=O)(O)OP(=O)(O)OP(=O)(O)O)[C@@H](O)[C@H]1O [MABA-ATP, 8-[(4-Amino)butyl]-amino-ATP-MAN] the koff (BiP NBD [2]; [3]) was 0.035 ± 0.008 s⁻¹, the kon (BiP NBD [2]; [3]) was 37000 ± 6000 M⁻¹ s⁻¹ and the Kd (BiP NBD [2]; MABA-ATP instead of ATP, reactions 1MABA, 2MABA, 3: release to apo NBD, T = 37°C) was 950 ± 100 nM. For the same compound, the kcat (BiP NBD [2]; NBD·MABA-ATP → NBD·MABA-ADP·Pi) was 0.036 s⁻¹, the Kd (BiP) was 1000 nM and the “koff1 (MABA-ATP)” value (BiP) was 0.031 s⁻¹. The kon (BiP) was 32000 M⁻¹ s⁻¹.

From publication PMC12126525, “Mechanism of ATP hydrolysis in the Hsp70 BiP nucleotide-binding domain” (Nature Communications, 2025)
